# Measurements from patent publication US6737383B1, “Herbicidal oxadiazolidines” (priority 1999, dated 2004).
# How the values were obtained:
# pigweed = assay: Test B pre/postemergence pigweed; format: in vivo, Amaranthus retroflexus
# Method in brief: (§1)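 Response is a visual 0-to-10 score relative to untreated plants, where 0 means no effect and 10 means complete control, taken twelve to sixteen days after application. Treatments went onto soil at planting and onto foliage of 1- to 4-leaf plants, using a surfactant-containing non-phytotoxic solvent.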
# blackgrass = assay: Test B pre/postemergence blackgrass; format: in vivo, Alopecurus myosuroides
# Method in brief: as §1
# wheat = assay: Test B pre/postemergence wheat; format: in vivo, Triticum aestivum
# Method in brief: as §1
# morningglory = assay: Test B pre/postemergence morningglory; format: in vivo, Ipomoea hederacea
# Method in brief: as §1
# velvetleaf = assay: Test B pre/postemergence velvetleaf; format: in vivo, Abutilon theophrasti
# Method in brief: as §1
# purple nutsedge = assay: Test B pre/postemergence purple nutsedge; format: in vivo, Cyperus rotundus
# Method in brief: as §1
# cocklebur = assay: Test B pre/postemergence cocklebur; format: in vivo, Xanthium strumarium
# Method in brief: as §1
# sugar beet = assay: Test B pre/postemergence sugar beet; format: in vivo, Beta vulgaris
# Method in brief: as §1
# soybean = assay: Test B pre/postemergence soybean; format: in vivo, Glycine max
# Method in brief: as §1
# corn = assay: Test B pre/postemergence corn; format: in vivo, Zea mays
# Method in brief: as §1
# bedstraw = assay: Test B pre/postemergence bedstraw; format: in vivo, Galium aparine; conditions: Preemergence
# Method in brief: as §1
# crabgrass = assay: Test B pre/postemergence crabgrass; format: in vivo, Digitaria sanguinalis
# Method in brief: as §1
# giant foxtail = assay: Test B pre/postemergence giant foxtail; format: in vivo, Setaria faberii
# Method in brief: as §1
# rape = assay: Test B pre/postemergence rape; format: in vivo, Brassica napus
# Method in brief: as §1
# surinam grass = assay: Test B pre/postemergence surinam grass; format: in vivo, Brachiaria decumbens
# Method in brief: as §1
# wild oat = assay: Test B pre/postemergence wild oat; format: in vivo, Avena fatua
# Method in brief: as §1
# [1] = Postemergence, Rate 62 g/ha, scale 0 to 10, 0 is no effect, 10 is complete control
# [2] = Postemergence, Rate 125 g/ha, scale of 0 to 10 where 0 is no effect and 10 is complete control
# [3] = Preemergence, Rate 62 g/ha, scale of 0 to 10 where 0 is no effect and 10 is complete control
# [4] = Preemergence, Rate 125 g/ha, scale of 0 to 10 where 0 is no effect and 10 is complete control
# [5] = Preemergence, Rate 250 g/ha, scale 0 to 10 (0 no effect, 10 complete control)
# [6] = Preemergence, Rate 500 g/ha, scale of 0 to 10 where 0 is no effect and 10 is complete control
# [7] = Rate 500 g/ha, Postemergence, scale 0 to 10, 0 is no effect, 10 is complete control
# [8] = Postemergence, Rate 250 g/ha, scale of 0 to 10, 0 is no effect, 10 is complete control
smiles,measurement,setting,value
C#CC(C=C(C)C)n1c(=O)on(C(=O)N(c2ccccc2)C(C)C)c1=O (centres unmarked) [Compound 652],"Plant response rating, Redroot pigweed",pigweed; [1],0
same,Redroot pigweed plant response rating,pigweed; [2],0
same,Redroot pigweed plant response rating,pigweed; [3],0
same,Redroot pigweed plant response rating,pigweed; [4],0
same,"Plant response rating, Redroot pigweed",pigweed; [5],0
same,"Plant response rating, Redroot pigweed",pigweed; [6],0
same,Redroot pigweed plant response rating,pigweed; [7],6
same,"Plant response rating, Blackgrass",blackgrass; [1],0
same,Blackgrass plant response rating,blackgrass; [2],0
same,Blackgrass plant response rating,blackgrass; [8],0
same,Blackgrass plant response rating,blackgrass; [3],0
same,Blackgrass plant response rating,blackgrass; [4],0
same,"Plant response rating, Blackgrass",blackgrass; [5],0
same,"Plant response rating, Blackgrass",blackgrass; [6],2
same,Blackgrass plant response rating,blackgrass; [7],0
same,"Plant response rating, Wheat",wheat; [1],0
same,Wheat plant response rating,wheat; [2],0
same,Wheat plant response rating,wheat; [3],0
same,Wheat plant response rating,wheat; [4],0
same,"Plant response rating, Wheat",wheat; [5],0
same,"Plant response rating, Wheat",wheat; [6],0
same,Wheat plant response rating,wheat; [7],2
same,"Plant response rating, Morningglory",morningglory; [1],3
same,Morningglory plant response rating,morningglory; [2],3
same,Morningglory plant response rating,morningglory; [8],5
same,Morningglory plant response rating,morningglory; [3],0
same,Morningglory plant response rating,morningglory; [4],0
same,"Plant response rating, Morningglory",morningglory; [5],0
same,"Plant response rating, Morningglory",morningglory; [6],0
same,Morningglory plant response rating,morningglory; [7],7
same,"Plant response rating, Velvetleaf",velvetleaf; [1],0
same,Velvetleaf plant response rating,velvetleaf; [2],0
same,Velvetleaf plant response rating,velvetleaf; [3],0
same,Velvetleaf plant response rating,velvetleaf; [4],0
same,"Plant response rating, Velvetleaf",velvetleaf; [5],0
same,"Plant response rating, Velvetleaf",velvetleaf; [6],1
same,Velvetleaf plant response rating,velvetleaf; [7],0
same,Nutsedge plant response rating,purple nutsedge; [2],0
same,Nutsedge plant response rating,purple nutsedge; [3],0
same,Nutsedge plant response rating,purple nutsedge; [4],0
same,"Plant response rating, Nutsedge",purple nutsedge; [5],0
same,"Plant response rating, Nutsedge",purple nutsedge; [6],3
same,Nutsedge plant response rating,purple nutsedge; [7],0
same,"Plant response rating, Cocklebur",cocklebur; [1],0
same,Cocklebur plant response rating,cocklebur; [2],0
same,Cocklebur plant response rating,cocklebur; [8],0
same,Cocklebur plant response rating,cocklebur; [3],0
same,Cocklebur plant response rating,cocklebur; [4],0
same,"Plant response rating, Cocklebur",cocklebur; [5],0
same,"Plant response rating, Cocklebur",cocklebur; [6],3
same,Cocklebur plant response rating,cocklebur; [7],0
same,"Plant response rating, Sugarbeets",sugar beet; [1],0
same,Sugarbeets plant response rating,sugar beet; [3],0
same,Sugarbeets plant response rating,sugar beet; [4],0
same,"Plant response rating, Sugarbeets",sugar beet; [5],0
same,"Plant response rating, Sugarbeets",sugar beet; [6],0
same,Sugarbeets plant response rating,sugar beet; [7],2
same,"Plant response rating, Soybean",soybean; [1],0
same,Soybean plant response rating,soybean; [2],0
same,Soybean plant response rating,soybean; [3],0
same,Soybean plant response rating,soybean; [4],0
same,"Plant response rating, Soybean",soybean; [5],0
same,"Plant response rating, Soybean",soybean; [6],0
same,Soybean plant response rating,soybean; [7],3
same,"Plant response rating, Corn",corn; [1],0
same,Corn plant response rating,corn; [2],0
same,Corn plant response rating,corn; [8],0
same,Corn plant response rating,corn; [3],0
same,Corn plant response rating,corn; [4],0
same,"Plant response rating, Corn",corn; [5],0
same,"Plant response rating, Corn",corn; [6],0
same,Corn plant response rating,corn; [7],0
same,Bedstraw plant response rating,"bedstraw; Rate 62 g/ha, scale of 0 to 10 where 0 is no effect and 10 is complete control",0
same,Bedstraw plant response rating,"bedstraw; Rate 125 g/ha, scale of 0 to 10 where 0 is no effect and 10 is complete control",0
same,"Plant response rating, Bedstraw","bedstraw; Rate 250 g/ha, scale 0 to 10 (0 no effect, 10 complete control)",0
same,"Plant response rating, Bedstraw","bedstraw; Rate 500 g/ha, scale of 0 to 10 where 0 is no effect and 10 is complete control",0
same,"Plant response rating, Crabgrass",crabgrass; [1],0
same,Crabgrass plant response rating,crabgrass; [2],0
same,Crabgrass plant response rating,crabgrass; [8],0
same,Crabgrass plant response rating,crabgrass; [3],4
same,Crabgrass plant response rating,crabgrass; [4],8
same,"Plant response rating, Crabgrass",crabgrass; [5],8
same,"Plant response rating, Crabgrass",crabgrass; [6],9
same,Crabgrass plant response rating,crabgrass; [7],6
same,"Plant response rating, Giant foxtail",giant foxtail; [1],0
same,Giant foxtail plant response rating,giant foxtail; [2],3
same,Giant foxtail plant response rating,giant foxtail; [8],4
same,Giant foxtail plant response rating,giant foxtail; [3],8
same,Giant foxtail plant response rating,giant foxtail; [4],9
same,"Plant response rating, Giant foxtail",giant foxtail; [5],9
same,"Plant response rating, Giant foxtail",giant foxtail; [6],9
same,Giant foxtail plant response rating,giant foxtail; [7],8
same,"Plant response rating, Rape",rape; [1],0
same,Rape plant response rating,rape; [3],0
same,Rape plant response rating,rape; [4],0
same,"Plant response rating, Rape",rape; [5],0
same,"Plant response rating, Rape",rape; [6],0
same,Rape plant response rating,rape; [7],0
same,"Plant response rating, B. signalgrass",surinam grass; [1],0
same,"Plant response rating, B. signalgrass",surinam grass; [2],0
same,B. signalgrass plant response rating,surinam grass; [8],0
same,B. signalgrass plant response rating,surinam grass; [3],0
same,B. signalgrass plant response rating,surinam grass; [4],0
same,"Plant response rating, B. signalgrass",surinam grass; [5],2
same,"Plant response rating, B. signalgrass",surinam grass; [6],2
same,B. signalgrass plant response rating,surinam grass; [7],2
same,"Plant response rating, Wild oats",wild oat; [1],0
same,Wild oats plant response rating,wild oat; [2],0
same,Wild oats plant response rating,wild oat; [3],0
same,Wild oats plant response rating,wild oat; [4],0
same,"Plant response rating, Wild oats",wild oat; [5],0
same,"Plant response rating, Wild oats",wild oat; [6],0
same,Wild oats plant response rating,wild oat; [7],0
